Measurements as given in patent US20090131431A1, “Pyrazolo[3,4-b]pyridine compounds, and their use as a PDE4 inhibitors” (priority 2005, published 2009).

Each compound was assayed against T1, PDE4B (human recombinant) (Homo sapiens, UniProt Q07343) (assay: Inhibition of PDE4B activity: SPA and/or Fluorescence Polarisation (FP) assay). Settings: one reading (n=1) or average of 2 or more readings, read-out: PDE4B pIC50 (±about 0.5) (converted).
T1 construct: made in house
T1 sequence (Q07343 1-564 isoform Q07343-2): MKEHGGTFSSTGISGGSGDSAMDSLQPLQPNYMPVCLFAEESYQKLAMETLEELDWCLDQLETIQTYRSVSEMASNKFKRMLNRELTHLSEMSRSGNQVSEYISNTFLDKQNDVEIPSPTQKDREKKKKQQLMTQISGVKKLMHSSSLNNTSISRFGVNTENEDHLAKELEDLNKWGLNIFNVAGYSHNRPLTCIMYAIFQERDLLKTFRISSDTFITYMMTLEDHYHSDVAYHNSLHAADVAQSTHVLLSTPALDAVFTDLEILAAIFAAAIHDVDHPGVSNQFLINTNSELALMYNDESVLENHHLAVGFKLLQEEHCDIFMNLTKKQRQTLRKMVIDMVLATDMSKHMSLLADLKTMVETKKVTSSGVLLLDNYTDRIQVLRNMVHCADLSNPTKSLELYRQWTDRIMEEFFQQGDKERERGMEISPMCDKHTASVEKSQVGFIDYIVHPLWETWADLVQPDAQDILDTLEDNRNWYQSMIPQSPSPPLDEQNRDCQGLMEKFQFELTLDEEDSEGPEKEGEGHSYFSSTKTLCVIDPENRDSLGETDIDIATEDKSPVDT
Type: biochemical
Protocol: The ability of compounds to inhibit catalytic activity at PDE4B or 4D (human recombinant), PDE3 (from bovine aorta), PDE5 (human recombinant) or PDE6 (from bovine retina) can optionally be determined by Scintillation Proximity Assay (SPA) in a 96-well format.
The enzyme concentration is adjusted so that no more than 20% hydrolysis of the substrate defined below occurs in control wells without compound, during the incubation. For the PDE3, PDE4B and PDE4D assays, [5′,8-3H]Adenosine 3′,5′-cyclic phosphate (Amersham Pharmacia Biotech, code TRK.559; or Amersham Biosciences UK Ltd, Pollards Wood, Chalfont St Giles, Buckinghamshire HP8 4SP, UK) is added to give 0.05 uCi per well and about 10 nM final concentration. […] Plates containing assay mixture, suitably approx. 100 ul volume of assay mixture, are mixed on an orbital shaker for 5 minutes and incubated at ambient temperature for 1 hour. Phosphodiesterase SPA beads (Amersham Pharmacia Biotech, code RPNQ 0150) are added (about 1 mg per well) to terminate the assay. Plates are sealed and shaken and allowed to stand at ambient temperature for 35 minutes to 1 hour (suitably 35 minutes) to allow the beads to settle. […] Curves are analysed using ActivityBase and XLfit (ID Business Solutions Limited, 2 Ocean Court, Surrey Research Park, Guildford, Surrey GU2 7QB, United Kingdom). Results are expressed as pIC50 values.
The ability of compounds to inhibit catalytic activity at PDE4B (human recombinant) or PDE4D (human recombinant) can optionally be determined by IMAP Fluorescence Polarisation (FP) assay (IMAP Explorer kit, available from Molecular Devices Corporation, Sunnydale, Calif., USA; Molecular Devices code: R8062) in 384-well format.
The IMAP FP assay is able to measure PDE activity in an homogenous, non-radioactive assay format. The FP assay uses the ability of immobilised trivalent metal cations, coated onto nanoparticles (tiny beads), to bind the phosphate group of Fl-AMP that is produced on the hydrolysis of fluorescein-labelled (Fl) cyclic adenosine mono-phosphate (Fl-cAMP) to the non-cyclic Fl-AMP form. […] Binding of Fl-AMP product to the beads (coated with the immobilised trivalent cations) slows the rotation of the bound Fl-AMP and leads to an increase in the fluorescence polarisation ratio of parallel to perpendicular light. Inhibition of the PDE reduces/inhibits this signal increase.
The enzyme level is set by experimentation so that reaction is linear throughout the incubation. Fluorescein adenosine 3′,5′-cyclic phosphate (from Molecular Devices Corporation, Molecular Devices code: R7091) is added to give about 40 nM final concentration (final assay volume usually ca. 20-40 ul, suitably ca. 20 ul). Plates are mixed on an orbital shaker for 10 seconds and incubated at ambient temperature for 40 minutes. IMAP binding reagent (as described above, from Molecular Devices Corporation, Molecular Devices code: R7207) is added (60 ul of a 1 in 400 dilution in binding buffer of the kit stock solution) to terminate the assay. Plates are allowed to stand at ambient temperature for 1 hour. The Fluorescence Polarisation (FP) ratio of parallel to perpendicular light is measured using an Analyst™ plate reader (from Molecular Devices Corporation). […] Curves are analysed using ActivityBase and XLfit (ID Business Solutions Limited, 2 Ocean Court, Surrey Research Park, Guildford, Surrey GU2 7QB, United Kingdom). Results are expressed as plC50 values.
With `CCn1ncc2c(NC3CCOCC3)c(CNC(=O)c3ccc(N(C)C)cc3)cnc21` [Example 88, 4-(dimethylamino)-N-{[1-ethyl-4-(tetrahydro-2H-pyran-4-ylamino)-1H-pyrazolo[3,4-b]pyridin-5-yl]methyl}benzamide] the IC50 was 0.126 to 1 nM.
Compound `CCn1ncc2c(NC3CCOCC3)c(CNC(=O)c3ccc(NC(C)=O)cc3)c(C)nc21` [Example 93, 4-(acetylamino)-N-{[1-ethyl-6-methyl-4-(tetrahydro-2H-pyran-4-ylamino)-1H-pyrazolo[3,4-b]pyridin-5-yl]methyl}benzamide] has an IC50 of 0.126 to 1 nM.
Compound `CCn1ncc2c(NC3CCOCC3)c(CNS(=O)(=O)c3cccs3)c(C)nc21` [Example 108, N-{[1-ethyl-6-methyl-4-(tetrahydro-2H-pyran-4-ylamino)-1H-pyrazolo[3,4-b]pyridin-5-yl]methyl}-2-thiophenesulfonamide] has an IC50 of 0.126 to 1 nM.
Work on `CCn1ncc2c(NC3CCOCC3)c(CNC(=O)c3ccc(N4CCCCC4)cc3)c(C)nc21` [Example 116, N-{[1-ethyl-6-methyl-4-(tetrahydro-2H-pyran-4-ylamino)-1H-pyrazolo[3,4-b]pyridin-5-yl]methyl}-4-(1-piperidinyl)benzamide] yielded an IC50 of 0.01 to 0.1 nM.
With `CCn1ncc2c(NC3CCOCC3)c(CNC(=O)c3cccc(N(C)C)c3)cnc21` [Example 120, 3-(dimethylamino)-N-{[1-ethyl-4-(tetrahydro-2H-pyran-4-ylamino)-1H-pyrazolo[3,4-b]pyridin-5-yl]methyl}benzamide] the IC50 was 0.126 to 1 nM.
In the case of `CCn1ncc2c(NC3CCOCC3)c(CNC(=O)c3ccc(S(C)(=O)=O)cc3)c(C)nc21` [Example 124, N-{[1-ethyl-6-methyl-4-(tetrahydro-2H-pyran-4-ylamino)-1H-pyrazolo[3,4-b]pyridin-5-yl]methyl}-4-(methylsulfonyl)benzamide], the IC50 was 0.126 to 1 nM.
`CCn1ncc2c(NC3CCOCC3)c(CNC(=O)c3cccnc3)c(C)nc21` [Example 125, N-{[1-ethyl-6-methyl-4-(tetrahydro-2H-pyran-4-ylamino)-1H-pyrazolo[3,4-b]pyridin-5-yl]methyl}-3-pyridinecarboxamide] was tested, and the IC50 was 0.126 to 1 nM.
`CCc1nc2c(cnn2CC)c(NC2CCOCC2)c1CNC(=O)c1cnccn1` [Example 146, N-{[1,6-diethyl-4-(tetrahydro-2H-pyran-4-ylamino)-1H-pyrazolo[3,4-b]pyridin-5-yl]methyl}-2-pyrazinecarboxamide] gave an IC50 of 0.126 to 1 nM.
In the case of `CCc1nc2c(cnn2CC)c(NC2CCOCC2)c1CNC(=O)c1cccc(NC(C)=O)c1` [Example 147, 3-(acetylamino)-N-{[1,6-diethyl-4-(tetrahydro-2H-pyran-4-ylamino)-1H-pyrazolo[3,4-b]pyridin-5-yl]methyl}benzamide], the IC50 was 0.01 to 0.1 nM.
In the case of `CCc1nc2c(cnn2CC)c(NC2CCOCC2)c1CNC(=O)c1ccc(-n2cccc2)nc1` [Example 148, N-{[1,6-diethyl-4-(tetrahydro-2H-pyran-4-ylamino)-1H-pyrazolo[3,4-b]pyridin-5-yl]methyl}-6-(1H-pyrrol-1-yl)-3-pyridinecarboxamide], the IC50 was 0.01 to 0.1 nM.
`CCc1nc2c(cnn2CC)c(NC2CCOCC2)c1CNC(=O)c1cccc(N2CCCC2=O)c1` [Example 149, N-{[1,6-diethyl-4-(tetrahydro-2H-pyran-4-ylamino)-1H-pyrazolo[3,4-b]pyridin-5-yl]methyl}-3-(2-oxo-1-pyrrolidinyl)benzamide] was tested, and the IC50 was 0.01 to 0.1 nM.
With `CCc1nc2c(cnn2CC)c(NC2CCOCC2)c1CNC(=O)c1ccnnc1` [Example 150, N-{[1,6-diethyl-4-(tetrahydro-2H-pyran-4-ylamino)-1H-pyrazolo[3,4-b]pyridin-5-yl]methyl}-4-pyridazinecarboxamide] the IC50 was 0.126 to 1 nM.
`CCc1nc2c(cnn2CC)c(NC2CCOCC2)c1CNC(=O)c1cncnc1` [Example 151, N-{[1,6-diethyl-4-(tetrahydro-2H-pyran-4-ylamino)-1H-pyrazolo[3,4-b]pyridin-5-yl]methyl}-5-pyrimidinecarboxamide] was tested, and the IC50 was 0.126 to 1 nM.
`CCc1nc2c(cnn2CC)c(NC2CCOCC2)c1CNC(=O)c1ccco1` [Example 153, N-{[1,6-diethyl-4-(tetrahydro-2H-pyran-4-ylamino)-1H-pyrazolo[3,4-b]pyridin-5-yl]methyl}-2-furancarboxamide] was tested, and the IC50 was 0.01 to 0.1 nM.
`CCc1nc2c(cnn2CC)c(NC2CCOCC2)c1CNC(=O)c1ccoc1` [Example 154, N-{[1,6-diethyl-4-(tetrahydro-2H-pyran-4-ylamino)-1H-pyrazolo[3,4-b]pyridin-5-yl]methyl}-3-furancarboxamide] gave an IC50 of 0.126 to 1 nM.
In the case of `CCc1nc2c(cnn2CC)c(NC2CCOCC2)c1CNC(=O)c1nc(C)oc1C(F)(F)F` [Example 155, N-{[1,6-diethyl-4-(tetrahydro-2H-pyran-4-ylamino)-1H-pyrazolo[3,4-b]pyridin-5-yl]methyl}-2-methyl-5-(trifluoromethyl)-1,3-oxazole-4-carboxamide], the IC50 was 0.126 to 1 nM.
With `CCc1nc2c(cnn2CC)c(NC2CCOCC2)c1CNC(=O)C1CCCO1` (stereo not drawn) [Example 156, N-{[1,6-diethyl-4-(tetrahydro-2H-pyran-4-ylamino)-1H-pyrazolo[3,4-b]pyridin-5-yl]methyl}tetrahydro-2-furancarboxamide] the IC50 was 0.126 to 1 nM.
Work on `CCc1nc2c(cnn2CC)c(NC2CCOCC2)c1CNC(=O)c1ccc(NC(C)=O)cc1OC` [Example 157, 4-(acetylamino)-N-{[1,6-diethyl-4-(tetrahydro-2H-pyran-4-ylamino)-1H-pyrazolo[3,4-b]pyridin-5-yl]methyl}-2-(methyloxy)benzamide] yielded an IC50 of 0.01 to 0.1 nM.
Work on `CCc1nc2c(cnn2CC)c(NC2CCOCC2)c1CNC(=O)c1ccnn1C` [Example 158, N-{[1,6-diethyl-4-(tetrahydro-2H-pyran-4-ylamino)-1H-pyrazolo[3,4-b]pyridin-5-yl]methyl}-1-methyl-1H-pyrazole-5-carboxamide] yielded an IC50 of 0.126 to 1 nM.
With `CCOc1ncccc1C(=O)NCc1c(CC)nc2c(cnn2CC)c1NC1CCOCC1` [Example 159, N-{[1,6-diethyl-4-(tetrahydro-2H-pyran-4-ylamino)-1H-pyrazolo[3,4-b]pyridin-5-yl]methyl}-2-(ethyloxy)-3-pyridinecarboxamide] the IC50 was 0.01 to 0.1 nM.
With `CCOc1ccccc1C(=O)NCc1c(CC)nc2c(cnn2CC)c1NC1CCOCC1` [Example 160, N-{[1,6-diethyl-4-(tetrahydro-2H-pyran-4-ylamino)-1H-pyrazolo[3,4-b]pyridin-5-yl]methyl}-2-(ethyloxy)benzamide] the IC50 was 0.01 to 0.1 nM.
With `CCc1nc2c(cnn2CC)c(NC2CCOCC2)c1CNC(=O)c1cccc2c1OCC2` [Example 161, N-{[1,6-diethyl-4-(tetrahydro-2H-pyran-4-ylamino)-1H-pyrazolo[3,4-b]pyridin-5-yl]methyl}-2,3-dihydro-1-benzofuran-7-carboxamide] the IC50 was 0.01 to 0.1 nM.
For `CCc1nc2c(cnn2CC)c(NC2CCOCC2)c1CNS(=O)(=O)Cc1ccccc1` [Example 169, N-{[1,6-diethyl-4-(tetrahydro-2H-pyran-4-ylamino)-1H-pyrazolo[3,4-b]pyridin-5-yl]methyl}-1-phenylmethanesulfonamide], the IC50 was 0.126 to 1 nM.
`CCc1nc2c(cnn2CC)c(NC2CCOCC2)c1CNS(=O)(=O)C(C)C` [Example 173, N-{[1,6-diethyl-4-(tetrahydro-2H-pyran-4-ylamino)-1H-pyrazolo[3,4-b]pyridin-5-yl]methyl}-2-propanesulfonamide] was tested, and the IC50 was 0.126 to 1 nM.
